Assay: refractive index (Na D-line) (dimensionless); xn = mol fraction of the nth substance listed
Details: 101 kPa, Liquid

CCn1cc[n+](C)c1.O=S(=O)([O-])C(F)(F)F [1-ethyl-3-methylimidazolium trifluoromethanesulfonate] + CC(C)O
refractive index
Details | 288.15 K | 298.15 K | 308.15 K | 318.15 K | 328.15 K | 338.15 K
x1 = 0.04997 | 1.38697 | 1.38304 | 1.37919 | 1.3753 | 1.37148 | 1.36735
x1 = 0.09937 | 1.39302 | 1.38935 | 1.38578 | 1.38236 | 1.37896 | 1.37487
x1 = 0.1504 | 1.39853 | 1.39494 | 1.39186 | 1.38861 | 1.38506 | 1.38103
x1 = 0.1995 | 1.40326 | 1.39957 | 1.39662 | 1.39356 | 1.39032 | 1.38662
x1 = 0.2508 | 1.40739 | 1.40382 | 1.40089 | 1.39817 | 1.39474 | 1.3916
x1 = 0.2997 | 1.411 | 1.4074 | 1.40439 | 1.40147 | 1.3983 | 1.39544
x1 = 0.3988 | 1.41689 | 1.41365 | 1.41071 | 1.40758 | 1.40457 | 1.40189
x1 = 0.5014 | 1.42209 | 1.41872 | 1.41564 | 1.41261 | 1.40972 | 1.4068
x1 = 0.6012 | 1.42562 | 1.42259 | 1.41956 | 1.41667 | 1.41379 | 1.41098
x1 = 0.6972 | 1.42868 | 1.42574 | 1.42285 | 1.41998 | 1.41714 | 1.41431
x1 = 0.7978 | 1.43159 | 1.42861 | 1.42579 | 1.42298 | 1.42017 | 1.41738
x1 = 0.8342 | 1.43251 | 1.42965 | 1.42678 | 1.42395 | 1.42115 | 1.41837
x1 = 0.8905 | 1.43379 | 1.43098 | 1.42818 | 1.42541 | 1.42264 | 1.41986
x1 = 1 | 1.43599 | 1.43322 | 1.4304 | 1.42767 | 1.42494 | 1.42222

CCn1cc[n+](C)c1.O=S(=O)([O-])C(F)(F)F [1-ethyl-3-methylimidazolium trifluoromethanesulfonate] + CCCO
refractive index
Details | 288.15 K | 298.15 K | 308.15 K | 318.15 K | 328.15 K | 338.15 K
x1 = 0.05007 | 1.39381 | 1.38991 | 1.38613 | 1.38243 | 1.37892 | 1.37545
x1 = 0.1013 | 1.39933 | 1.39557 | 1.39221 | 1.38877 | 1.38613 | 1.38306
x1 = 0.1503 | 1.40371 | 1.4001 | 1.3968 | 1.3938 | 1.39112 | 1.38856
x1 = 0.2001 | 1.40743 | 1.404 | 1.4009 | 1.39795 | 1.39522 | 1.39266
x1 = 0.2497 | 1.41088 | 1.40747 | 1.40434 | 1.40127 | 1.39872 | 1.39631
x1 = 0.3008 | 1.41391 | 1.41061 | 1.40747 | 1.40445 | 1.40173 | 1.39926
x1 = 0.3996 | 1.41854 | 1.41537 | 1.41218 | 1.40923 | 1.40634 | 1.40392
x1 = 0.4965 | 1.42297 | 1.41986 | 1.41681 | 1.41376 | 1.41082 | 1.4078
x1 = 0.602 | 1.42671 | 1.42372 | 1.42062 | 1.41752 | 1.41447 | 1.41163
x1 = 0.7043 | 1.42943 | 1.42647 | 1.42347 | 1.42076 | 1.41793 | 1.41508
x1 = 0.7945 | 1.43174 | 1.42886 | 1.42604 | 1.42323 | 1.4204 | 1.41758
x1 = 0.8421 | 1.4325 | 1.42963 | 1.4268 | 1.42398 | 1.42115 | 1.41838
x1 = 0.8988 | 1.43378 | 1.43096 | 1.42815 | 1.42533 | 1.42258 | 1.41984
x1 = 1 | 1.43599 | 1.43322 | 1.4304 | 1.42767 | 1.42494 | 1.42222

From the NIST ThermoML archive (doi:10.1021/je9006037)
